Source: PubChem BioAssay AID248 (DTP/NCI, 2004)
Several values for one entry are separate records, joined by “and”; a condition that tells them apart may be missing. Equal entries are not always repeated. Inconclusive results and toxic doses are left out. Rule as the data show it: active = T/C of 150% or more; inactive = T/C below 125%.

System: L1210 leukemia ip in BDF1 mice, survival T/C
Assay: NCI In Vivo Anticancer Drug Screen. Data for tumor model L1210 Leukemia (intraperitoneal) in B6D2F1 (BDF1) mice
Details: endpoint: mean survival time, higher = longer survival
Procedure, shortened: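 Ratio derived from survival: compound-dosed mice over vehicle-dosed mice, all bearing a transplantable tumor.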

[1] = dose: 100.0 mg/kg/injection, schedule: Q01DX009 (ip), vehicle: saline with Tween-80
[2] = dose: 100.0 mg/kg/injection, schedule: Q04DX003 (ip), vehicle: saline with Tween-80
[3] = dose: 200.0 mg/kg/injection, schedule: Q01DX009 (ip), vehicle: saline with Tween-80
[4] = dose: 200.0 mg/kg/injection, schedule: Q04DX003 (ip), vehicle: saline with Tween-80
[5] = dose: 400.0 mg/kg/injection, schedule: Q01DX009 (ip), vehicle: saline with Tween-80
[6] = dose: 400.0 mg/kg/injection, schedule: Q04DX003 (ip), vehicle: saline with Tween-80
[7] = dose: 75.0 mg/kg/injection, schedule: Q01DX001 (ip), vehicle: other
[8] = dose: 150.0 mg/kg/injection, schedule: Q01DX001 (ip), vehicle: other
[9] = dose: 300.0 mg/kg/injection, schedule: Q01DX001 (ip), vehicle: other
[10] = dose: 100.0 mg/kg/injection, schedule: Q04DX002 (ip), vehicle: Klucel (hydroxypropylcellulose) (HPC)
[11] = dose: 200.0 mg/kg/injection, schedule: Q04DX002 (ip), vehicle: Klucel (hydroxypropylcellulose) (HPC)
[12] = dose: 400.0 mg/kg/injection, schedule: Q04DX002 (ip), vehicle: Klucel (hydroxypropylcellulose) (HPC)
[13] = dose: 100.0 mg/kg/injection, schedule: Q04DX003 (ip), vehicle: Klucel (hydroxypropylcellulose) (HPC)
[14] = dose: 200.0 mg/kg/injection, schedule: Q04DX003 (ip), vehicle: Klucel (hydroxypropylcellulose) (HPC)
[15] = dose: 400.0 mg/kg/injection, schedule: Q04DX003 (ip), vehicle: Klucel (hydroxypropylcellulose) (HPC)
[16] = dose: 100.0 mg/kg/injection, schedule: Q01DX001 (ip), vehicle: Klucel (hydroxypropylcellulose) (HPC)
[17] = dose: 200.0 mg/kg/injection, schedule: Q01DX001 (ip), vehicle: Klucel (hydroxypropylcellulose) (HPC)
[18] = dose: 400.0 mg/kg/injection, schedule: Q01DX001 (ip), vehicle: Klucel (hydroxypropylcellulose) (HPC)
[19] = dose: 100.0 mg/kg/injection, schedule: Q01DX009 (ip), vehicle: Klucel (hydroxypropylcellulose) (HPC)
[20] = dose: 200.0 mg/kg/injection, schedule: Q01DX009 (ip), vehicle: Klucel (hydroxypropylcellulose) (HPC)
[21] = dose: 400.0 mg/kg/injection, schedule: Q01DX009 (ip), vehicle: Klucel (hydroxypropylcellulose) (HPC)

Measured: T/C

CCOC(=O)CC1C(=O)Oc2ccc(O)cc21 (stereo not drawn) (tested in a mixture with another compound)
inactive: [1] 100 % of control | [2] 96 % of control | [3] 97 % of control | [4] 110 % of control | [5] 90 % of control | [6] 94 % of control

ClC(Cl)=[C](Cl)[Hg][C](Cl)=C(Cl)Cl
inactive: dose: 0.39 mg/kg/injection, schedule: Q01DX009 (ip), vehicle: saline with Tween-80 96 % of control | dose: 0.78 mg/kg/injection, schedule: Q01DX009 (ip), vehicle: saline with Tween-80 97 % of control | dose: 1.56 mg/kg/injection, schedule: Q01DX009 (ip), vehicle: saline with Tween-80 93 % of control and 86 % of control

ClCCNCc1cccc(Nc2ccnc3cc(Cl)ccc23)c1
inactive: dose: 75.0 mg/kg/injection, schedule: Q01DX001 (ip), vehicle: carboxymethylcellulose (CMC) 103 % of control | dose: 150.0 mg/kg/injection, schedule: Q01DX001 (ip), vehicle: carboxymethylcellulose (CMC) 95 % of control

COc1ccc(C2C(c3ccccc3)C=CC(c3ccccc3)C2[N+](=O)[O-])cc1OC (stereo not drawn)
inactive: dose: 100.0 mg/kg/injection, schedule: Q01DX001 (ip), vehicle: carboxymethylcellulose (CMC) 94 % of control | dose: 200.0 mg/kg/injection, schedule: Q01DX001 (ip), vehicle: carboxymethylcellulose (CMC) 110 % of control | dose: 400.0 mg/kg/injection, schedule: Q01DX001 (ip), vehicle: carboxymethylcellulose (CMC) 94 % of control

CCOC(=O)c1ccc(NCC(=O)CNc2nc(N)nc(N)c2[N+](=O)[O-])cc1
inactive: [7] 95 % of control | [8] 90 % of control | [9] 87 % of control

O=C(NCCCBr)Nc1cccc2c1CCCC2
inactive: dose: 50.0 mg/kg/injection, schedule: Q04DX003 (ip), vehicle: saline with Tween-80 95 % of control | [1] 100 % of control | [2] 93 % of control | [3] 97 % of control | [4] 101 % of control | [5] 96 % of control | [6] 95 % of control

Cc1cccc(NC(=O)Nc2ccccc2)n1
inactive: [10] 98 % of control | [11] 103 % of control | [12] 103 % of control

COc1cccc2c1C13CC(C)CC(C2)C1CCC(=O)N3 (stereo not drawn)
inactive: [13] 100 % of control | [14] 93 % of control | [15] 102 % of control

CC(C)=CCNC12CC3CC(CC(C3)C1)C2
inactive: dose: 5.0 mg/kg/injection, schedule: Q01DX001 (ip), vehicle: saline 101 % of control | dose: 10.0 mg/kg/injection, schedule: Q01DX001 (ip), vehicle: saline 106 % of control | dose: 20.0 mg/kg/injection, schedule: Q01DX001 (ip), vehicle: saline 108 % of control | dose: 40.0 mg/kg/injection, schedule: Q01DX001 (ip), vehicle: saline 107 % of control | dose: 80.0 mg/kg/injection, schedule: Q01DX001 (ip), vehicle: saline 104 % of control

O=[N+]([O-])c1ccc(NS(=O)(=O)c2ccc(Cl)c(Cl)c2)cc1
inactive: dose: 12.5 mg/kg/injection, schedule: Q01DX001 (ip), vehicle: other 92 % of control | dose: 12.5 mg/kg/injection, schedule: Q01DX009 (ip), vehicle: gum acacia 101 % of control | dose: 12.5 mg/kg/injection, schedule: Q04DX003 (ip), vehicle: other 95 % of control | dose: 25.0 mg/kg/injection, schedule: Q01DX001 (ip), vehicle: other 97 % of control | dose: 25.0 mg/kg/injection, schedule: Q01DX009 (ip), vehicle: gum acacia 91 % of control | dose: 25.0 mg/kg/injection, schedule: Q04DX003 (ip), vehicle: other 94 % of control | dose: 50.0 mg/kg/injection, schedule: Q01DX001 (ip), vehicle: other 97 % of control | dose: 50.0 mg/kg/injection, schedule: Q04DX003 (ip), vehicle: other 94 % of control

FC(F)(F)c1ccc2c(c1)N(CCCN1CCN(CCN3CCOCC3)CC1)c1ccccc1S2
inactive: dose: 0.78 mg/kg/injection, schedule: Q01DX009 (ip), vehicle: saline 100 % of control | dose: 1.56 mg/kg/injection, schedule: Q01DX009 (ip), vehicle: saline 106 % of control | dose: 3.12 mg/kg/injection, schedule: Q01DX009 (ip), vehicle: saline 95 % of control | dose: 12.5 mg/kg/injection, schedule: Q04DX003 (ip), vehicle: saline 108 % of control | dose: 25.0 mg/kg/injection, schedule: Q04DX003 (ip), vehicle: saline 116 % of control

CC(=O)Nc1ccccc1C(C#N)Cc1ccccc1 (stereo not drawn)
inactive: [7] 96 % of control | [8] 101 % of control | [9] 101 % of control

Nc1ccccc1-c1nc(N)c2ccccc2n1
inactive: [16] 102 % of control | [17] 102 % of control | [18] 108 % of control

Cc1ccc(S(=O)(=O)OCC2C(COS(=O)(=O)c3ccc(C)cc3)C3C=CC2C32CC2)cc1 (stereo not drawn)
inactive: [10] 105 % of control | [11] 110 % of control | [12] 102 % of control

Cc1cc(C#N)n(O)c1
inactive: dose: 50.0 mg/kg/injection, schedule: Q01DX009 (ip), vehicle: Klucel (hydroxypropylcellulose) (HPC) 103 % of control | [19] 100 % of control | [20] 101 % of control

COc1ccc(C(=O)NC(=S)Nc2cccc(C)c2C)cc1
inactive: [19] 102 % of control | [13] 93 % of control | [20] 102 % of control | [14] 89 % of control | [21] 95 % of control | [15] 98 % of control

CC(=N/Nc1ccccc1)/C(C)=N/Nc1ccccc1
inactive: [16] 101 % of control | [19] 88 % of control | [17] 91 % of control | [20] 95 % of control | [18] 102 % of control | [21] 98 % of control

CCOC(=O)CNC(=O)Nc1ccc(S(N)(=O)=O)cc1
inactive: [1] 95 % of control | [3] 96 % of control | [5] 96 % of control

CCC1(CCC#N)CCc2[nH]c3ccccc3c2C1=O (stereo not drawn)
inactive: dose: 100.0 mg/kg/injection, schedule: Q04DX002 (ip), vehicle: saline with Tween-80 108 % of control | dose: 200.0 mg/kg/injection, schedule: Q04DX002 (ip), vehicle: saline with Tween-80 94 % of control | dose: 400.0 mg/kg/injection, schedule: Q04DX002 (ip), vehicle: saline with Tween-80 87 % of control

CC(=O)Nc1cccc(Cl)c1F
inactive: [10] 100 % of control | [11] 93 % of control | [12] 107 % of control

NC(=O)C[CH2][Sn]([c]1ccccc1)([c]1ccccc1)[c]1ccccc1
inactive: dose: 50.0 mg/kg/injection, schedule: Q01DX009 (ip), vehicle: saline with Tween-80 101 % of control | [1] 112 % of control
